# In article PMC10997755, “Discovery of a small-molecule inhibitor that traps Polθ on DNA and synergizes with PARP inhibitors” (Nature Communications, 2024):
# Several values for one entry are separate records, joined by “and”; a condition that tells them apart may be missing. Equal entries are not always repeated.
# How the values were obtained:
# Polβ = target: T1, Polβ (Homo sapiens, UniProt P06746); assay: Primer extension by recombinant Pols (selectivity); type: biochemical
# T1 construct: gift: Dr. Wilson (NIEHS)
# [1] = tested on: PALB2 complemented EUFA1341 cells; assay: Clonogenic assay; type: cell-based; settings: for Average (raw signal of wells) / Normalized (0 micro M = 100) / average - blank: per experiment
# Method in brief: (§1)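 Colony formation by BRCA-deficient, PALB2-mutant and wild-type cells (300–1000 cells/well) and MEFs (300 cells/well) over 10–12 days, medium changed every 2 days. Colonies fixed, stained with 0.5% crystal violet and counted; IC50 from 3 or more independent experiments.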
# EUFA1341 PALB2 mut cells = assay: Clonogenic assay; type: cell-based
# Method in brief: as §1
# HCT116 Parental cells = assay: Clonogenic assay; type: cell-based; settings: for Average number of colonies counted / Normalized colonies (% normalized to control): per experiment
# Method in brief: as §1
# Pol Eta = target: T2, Pol Eta (Homo sapiens, UniProt Q9Y253); assay: Primer extension by recombinant Pols (selectivity); type: biochemical
# T2 sequence (Q9Y253 1-713): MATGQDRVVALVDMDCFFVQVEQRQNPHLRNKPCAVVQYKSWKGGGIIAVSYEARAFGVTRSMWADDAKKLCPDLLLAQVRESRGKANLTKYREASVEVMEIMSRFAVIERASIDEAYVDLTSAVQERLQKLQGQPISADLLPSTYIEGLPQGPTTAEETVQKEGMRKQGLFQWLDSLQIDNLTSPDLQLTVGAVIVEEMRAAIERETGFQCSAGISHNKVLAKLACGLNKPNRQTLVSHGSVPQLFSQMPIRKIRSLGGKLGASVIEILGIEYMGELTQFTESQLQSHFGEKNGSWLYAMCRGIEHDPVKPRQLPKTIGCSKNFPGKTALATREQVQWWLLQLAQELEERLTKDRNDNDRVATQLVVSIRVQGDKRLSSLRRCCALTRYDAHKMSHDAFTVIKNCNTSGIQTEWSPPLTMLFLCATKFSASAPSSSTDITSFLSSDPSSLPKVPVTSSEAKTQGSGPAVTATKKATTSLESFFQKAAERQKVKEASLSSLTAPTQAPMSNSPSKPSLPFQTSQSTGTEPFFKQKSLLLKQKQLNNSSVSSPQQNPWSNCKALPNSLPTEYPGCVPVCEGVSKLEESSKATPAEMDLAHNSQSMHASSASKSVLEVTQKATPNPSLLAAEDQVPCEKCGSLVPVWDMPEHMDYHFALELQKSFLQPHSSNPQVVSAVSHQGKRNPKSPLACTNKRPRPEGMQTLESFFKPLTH
# DLD1 BRCA2 -/- cells = assay: Western blot γ-H2AX phosphorylation and PARP cleavage; type: cell-based; settings: versus parental
# Description: Cells were harvested using—cell scraper and washed in phosphate-buffered saline (PBS), then lysed in 1 x RIPA Lysis and Extraction Buffer (Thermo Scientific #89901) containing Halt™ Protease and Phosphatase Inhibitor Cocktail (Thermo Scientific #1861281). Protein concentration was measured using Pierce™ BCA Protein Assay Kit (Thermo Scientific #23225). The proteins were separated by electrophoresis using 4–20% Mini-PROTEAN® TGX™ Precast Protein Gels (Bio-Rad #4561096) and transferred to Immuno Blot PVDF Membrane (Bio-Rad #1620177). Membranes were blocked using 5%-milk-TBST (or 5%-BSA-TBST for phospho-proteins) for 1 h at room temperature and washed with TBST prior to antibody incubation. Primary antibodies were incubated overnight at 4 °C in 1%-milk-TBST (or 2%-BSA-TBST for phospho-proteins). γ-H2AX (p Ser139) was detected using antibody (NOVUS #NB100-384) diluted 1:2000. Cleaved PARP was detected using antibody (Cell Signaling #9546) diluted 1:2000. Gapdh was detected using Gapdh (14C10) rabbit monoclonal antibody (Cell Signaling Technology #2118) diluted 1:4000. Membranes were washed with TBST prior to secondary antibody incubation for 1 h at room temperature using respective Goat anti-Rabbit IgG (H + L) HRP (Invitrogen #31466) or Goat anti-Mouse IgG (H + L) HRP (Invitrogen #31430)–tagged Secondary Antibody diluted 1:5000 in 2%-milk-TBST. […]
# Polα = assay: Primer extension by recombinant Pols (selectivity); type: biochemical
# [2] = selectivity panel, Pol named in Supplementary Fig. 1h
smiles,measurement,setting,value
CN(C(=O)Oc1c(N2CCN(CCO)C2=O)cc(C(F)(F)F)cc1C(F)(F)F)c1ccc(F)cc1 [RTx-161],% Full Extension,Polβ; Pol Beta,84.31%
same,% Inhibition Compared to Control,Polβ; Pol Beta,-0.98%
same,% Relative Maximum Extension,Polβ; Pol Beta,100.98%
same,inhibition of primer extension,Polβ; [2],no inhibition
same,activity against PALB2 complemented EUFA1341 cells,[1],little to no activity
same,Average (raw signal of wells),[1]; RTX-161 2.5 micro M,1.026 and 0.9713 and 0.6573
same,Normalized (0 micro M = 100),[1]; RTX-161 2.5 micro M,116.435% and 111.613% and 105.551%
same,average - blank,[1]; RTX-161 2.5 micro M,0.8256 and 0.7713 and 0.5073
same,Average (raw signal of wells),[1]; RTX-161 5 micro M,1.035 and 0.9992
same,Normalized (0 micro M = 100),[1]; RTX-161 5 micro M,117.788% and 115.651% and 105.551%
same,average - blank,[1]; RTX-161 5 micro M,0.8352 and 0.7992 and 0.5073
same,Average (raw signal of wells),[1]; RTX-161 10 micro M,0.6121 and 1.137 and 1.058
same,Normalized (0 micro M = 100),[1]; RTX-161 10 micro M,96.1382% and 132.128% and 124.139%
same,survival of PALB2-mutant EUFA1341 cells,EUFA1341 PALB2 mut cells,significant reduction in the survival
same,IC50,"EUFA1341 PALB2 mut cells; EUFA1341 cells, label beside PALB2-mut curve, read-out: IC50 clonogenic survival",~5 µM
same,Normalized (0 micro M = 100),"EUFA1341 PALB2 mut cells; RTX-161 2.5 micro M, per experiment",67.9566% and 76.5823% and 64.8427%
same,Normalized (0 micro M = 100),"EUFA1341 PALB2 mut cells; RTX-161 5 micro M, per experiment",50.4887% and 55.1827% and 45.6779%
same,Average (raw signal of wells),"EUFA1341 PALB2 mut cells; RTX-161 10 micro M, per experiment",0.37 and 0.6469 and 0.6018
same,effect in BRCA2-WT cells,"HCT116 Parental cells; HCT116, colony survival",little to no effect
same,"Normalized colonies, pooled Average of 3 experiments",HCT116 Parental cells; RTX-161 0.5 micro M,101.74%
same,Average number of colonies counted,HCT116 Parental cells; RTX-161 0.5 micro M,118 and 67.6667 and 68.6667
same,Normalized colonies (% normalized to control),HCT116 Parental cells; RTX-161 0.5 micro M,99.7183% and 107.407% and 98.0952%
same,"Normalized colonies, pooled Average of 3 experiments",HCT116 Parental cells; RTX-161 1 micro M,98.8027%
same,Average number of colonies counted,HCT116 Parental cells; RTX-161 1 micro M,114.333 and 64.6667 and 68
same,Normalized colonies (% normalized to control),HCT116 Parental cells; RTX-161 1 micro M,96.6197% and 102.646% and 97.1429%
same,"Normalized colonies, pooled Average of 3 experiments",HCT116 Parental cells; RTX-161 2 micro M,97.4337%
same,Average number of colonies counted,HCT116 Parental cells; RTX-161 2 micro M,112.667 and 59.6667 and 71.6667
same,Normalized colonies (% normalized to control),HCT116 Parental cells; RTX-161 2 micro M,95.2113% and 94.709% and 102.381%
same,"Normalized colonies, pooled Average of 3 experiments",HCT116 Parental cells; RTX-161 4 micro M,97.4186%
same,Average number of colonies counted,HCT116 Parental cells; RTX-161 4 micro M,107.667 and 62 and 72
same,Normalized colonies (% normalized to control),HCT116 Parental cells; RTX-161 4 micro M,90.9859% and 98.4127% and 102.857%
same,"Normalized colonies, pooled Average of 3 experiments",HCT116 Parental cells; RTX-161 8 micro M,96.7852%
same,Average number of colonies counted,HCT116 Parental cells; RTX-161 8 micro M,104.667 and 63 and 71.3333
same,Normalized colonies (% normalized to control),HCT116 Parental cells; RTX-161 8 micro M,88.4507% and 100% and 101.905%
same,% Full Extension,Pol Eta; Pol Eta,78.72%
same,% Inhibition Compared to Control,Pol Eta; Pol Eta,-2.54%
same,% Relative Maximum Extension,Pol Eta; Pol Eta,102.54%
same,inhibition of primer extension,Pol Eta; [2],no inhibition
same,PARP cleavage,DLD1 BRCA2 -/- cells,selectively induced PARP cleavage
same,% Full Extension,Polα; Pol Alpha,84.67%
same,% Inhibition Compared to Control,Polα; Pol Alpha,-1.20%
same,% Relative Maximum Extension,Polα; Pol Alpha,101.20%
same,inhibition of primer extension,Polα; [2],no inhibition
